Tests used:
[1] = molecular target: hPARG (C-terminal His6-tag) (Homo sapiens (Human), UniProt Q86W56); test: PARG Enzymatic Activity Assay (HTRF); assay type: biochemical; conditions: hPARG 65 pM final, biotinylated-NAD ribosylated PARP1 8 nM final
Description: PARG Enzymatic Activity Assay HTRF assay was used to measure the ability of compounds to inhibit the activity of PARG in vitro. C-terminal His6-tag PARG expressed in E. coli was purified and stored at −80° C. in aliquots. Assay measurements were performed with 1×buffer comprising 50 mM Tris pH 7.4, 0.1 mg/mL BSA, 3 mM EDTA, 0.4 mM EGTA, 1 mM DTT, 50 mM KCl and 0.01% Tween 20.
Compounds dissolved in DMSO were plated into a 384-well assay plate (PerkinElmer, Catalog #: 6008280) in duplicate using a dispenser (Labcyte, Echo 665), and tested on a 10-point 4-fold serial dilution. Add 5 L Enzyme mix [hPARG (C-terminal His6-tag, 4.2 μM), 65 pM final] to the test wells. The plates were covered and left to incubate for 60 minutes at RT before the addition of 5 L substrate mix [biotinylated-NAD ribosylated PARP1 (6.1 μM), 8 nM final] to initiate reaction. After incubating 10 minutes at RT, add 2.5 L Streptavidin-Eu cryptate (Cisbio, Catalog #: 610SAKLA) and 2.5 L Mab anti 6HIS-XL665 (Cisbio, Catalog #: 61HISXLA) to the plate, and incubate for 60 minutes at RT. Read on a multimode plate reader (PerkinElmer, Envision 2015) in time-resolved fluorescence (TRF) mode, with excitation at 337 nm and emission at both 620 nm and 665 nm. Average HTRF signal of high control (Wells with 1% DMSO) was calculated and as Vehicle Control (VC). Average HTRF signal of low control (no Enzyme) was calculated and as Positive control (PC).
(§1) IC50 values were determined by fitting the data to the standard 4 parameters with Hill Slope using GraphPad Prism software.

Kuramochi cell line = test: Cell Viability Assay (Cell Titer-Glo, 7 days); assay type: cell-based; conditions: 168 h, Kuramochi cells, 7 days incubation, read-out: PARG Cell viability (IC50)
Description: Cell viability studies were conducted in Kuramochi cell line. Cells were maintained in RPMI (Hyclone, Catalog #: SH3080901B) supplemented with 10% v/v FBS (AusGeneX, Catalog #: FBS500-S), 1% v/v Penicillin Streptomycin (Gibco, Catalog #: 15140122). Cells were seeded in 96-well plates (PerkinElmer, Catalog #: 6005680) at a density of 400 cells/well. Compounds dissolved in DMSO were plated in duplicate using a multichannel pipette, and tested on a 9-point 3-fold serial dilution. Cells were incubated for 7 days in a 37° C. active humidified incubator at 5% CO2. Cell viability was measured using the Cell Titer-Glo reagent (Promega, Catalog #: G7573) as manufacturer's instructions. Luminescence signal was measured with a multimode plate reader (Perkin Elmer, Envision 2105 or BMG, ClarioStar Plus). Average values of DMSO treated wells in a plate was calculated and as high control (HC). Average values of only medium in a plate was calculated and as low control (LC)
as §1

Sequence of hPARG (C-terminal His6-tag) (Q86W56 whole entry): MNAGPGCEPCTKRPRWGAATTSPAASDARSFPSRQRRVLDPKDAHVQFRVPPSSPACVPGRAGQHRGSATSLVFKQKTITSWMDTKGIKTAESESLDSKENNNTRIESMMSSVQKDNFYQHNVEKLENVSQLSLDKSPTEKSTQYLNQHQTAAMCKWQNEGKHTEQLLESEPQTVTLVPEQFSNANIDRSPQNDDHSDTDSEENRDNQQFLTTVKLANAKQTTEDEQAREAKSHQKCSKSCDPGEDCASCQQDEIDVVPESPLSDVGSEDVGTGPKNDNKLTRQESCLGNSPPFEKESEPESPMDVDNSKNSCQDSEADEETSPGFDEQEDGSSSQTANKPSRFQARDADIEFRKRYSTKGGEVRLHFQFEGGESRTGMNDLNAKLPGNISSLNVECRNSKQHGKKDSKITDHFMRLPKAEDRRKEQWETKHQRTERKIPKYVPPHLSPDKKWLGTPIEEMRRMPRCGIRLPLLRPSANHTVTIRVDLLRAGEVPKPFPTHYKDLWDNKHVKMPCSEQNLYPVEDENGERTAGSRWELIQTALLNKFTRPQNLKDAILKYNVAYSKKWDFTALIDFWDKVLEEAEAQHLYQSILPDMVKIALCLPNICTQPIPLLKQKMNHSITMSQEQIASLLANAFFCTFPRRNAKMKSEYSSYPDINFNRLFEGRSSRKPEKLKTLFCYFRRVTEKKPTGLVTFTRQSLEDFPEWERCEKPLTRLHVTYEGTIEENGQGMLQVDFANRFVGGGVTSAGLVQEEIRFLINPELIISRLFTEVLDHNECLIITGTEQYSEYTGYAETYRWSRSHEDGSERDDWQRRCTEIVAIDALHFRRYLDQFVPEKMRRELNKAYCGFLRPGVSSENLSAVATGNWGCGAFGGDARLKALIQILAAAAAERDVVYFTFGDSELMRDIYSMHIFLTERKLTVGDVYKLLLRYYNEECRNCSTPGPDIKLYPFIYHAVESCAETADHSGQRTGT

Compound	IC50 [1]	IC50 (Kuramochi cell line)
Cc1nc(N2CCN3CCOC[C@H]3C2)c2c3ccc(S(=O)(=O)NC4(C#N)CC4)cc3n(-c3nnc(C(F)F)s3)c2n1 [Example 192, (R)—N-(1-Cyanocyclopropyl)-9-(5-(difluoromethyl)-1,3,4-thiadiazol-2-yl)-4-(hexahydropyrazino[2,1-c][1,4]oxazin-8(1H)-yl)-2-methyl-9H-pyrimido[4,5-b]indole-7-sulfonamide]	100 to 1000 nM	< 100 nM
CON(C)C(=O)N1CCC(c2ncnc3c2c2ccc(S(=O)(=O)NC4(C#N)CC4)cc2n3-c2nnc(C(F)F)s2)CC1 [Example 145, 4-(7-(N-(1-Cyanocyclopropyl)sulfamoyl)-9-(5-(difluoromethyl)-1,3,4-thiadiazol-2-yl)-9H-pyrimido[4,5-b]indol-4-yl)-N-methoxy-N-methylpiperidine-1-carboxamide]	< 100 nM	< 100 nM
N#CC1(NS(=O)(=O)c2ccc3c4c(N5C6CCC5COC6)ncnc4n(-c4nnc(C(F)F)s4)c3c2)CC1 [Example 210, 4-(3-Oxa-8-azabicyclo[3.2.1]octan-8-yl)-N-(1-cyanocyclopropyl)-9-(5-(difluoromethyl)-1,3,4-thiadiazol-2-yl)-9H-pyrimido[4,5-b]indole-7-sulfonamide]	< 100 nM	< 100 nM
C[C@H]1CN(c2ncnc3c2c2cc(F)c(S(=O)(=O)NC4(C#N)CC4)cc2n3-c2nnc(C(F)F)s2)CCN1C(=O)N(C)C [Example 46, (S)-4-(7-(N-(1-Cyanocyclopropyl)sulfamoyl)-9-(5-(difluoromethyl)-1,3,4-thiadiazol-2-yl)-6-fluoro-9H-pyrimido[4,5-b]indol-4-yl)-N,N,2-trimethylpiperazine-1-carboxamide]	< 100 nM	< 100 nM
C[C@@H](O)C(=O)N1CCC(c2ncnc3c2c2ccc(S(=O)(=O)NC4(C#N)CC4)cc2n3-c2nnc(C(F)F)s2)CC1 [Example 107, (R)-N-(1-Cyanocyclopropyl)-9-(5-(difluoromethyl)-1,3,4-thiadiazol-2-yl)-4-(1-(2-hydroxypropanoyl)piperidin-4-yl)-9H-pyrimido[4,5-b]indole-7-sulfonamide]	< 100 nM	< 100 nM

Second part, led by results:

IC50 [1]	Compound	IC50 (Kuramochi cell line)
100 to 1000 nM	CC(C)C(=O)N1CCN(c2ncnc3c2c2ccc(S(=O)(=O)NC4(C#N)CC4)cc2n3-c2nnc(C(F)F)s2)C[C@H]1C [Example 60, (R)-N-(1-cyanocyclopropyl)-9-(5-(difluoromethyl)-1,3,4-thiadiazol-2-yl)-4-(4-isobutyryl-3-methylpiperazin-1-yl)-9H-pyrimido[4,5-b]indole-7-sulfonamide]	100 to 1000 nM
< 100 nM	COC1CCN(c2ncnc3c2c2ccc(S(=O)(=O)NC4(C#N)CC4)cc2n3-c2nnc(C(F)F)s2)CC1 [Example 44, N-(1-Cyanocyclopropyl)-9-(5-(difluoromethyl)-1,3,4-thiadiazol-2-yl)-4-(4-methoxypiperidin-1-yl)-9H-pyrimido[4,5-b]indole-7-sulfonamide]	< 100 nM
100 to 1000 nM	N#CC1(NS(=O)(=O)c2ccc3c4c(N5CCC(O)CC5)ccnc4n(-c4nnc(C(F)F)s4)c3c2)CC1 [Example 80, N-(1-Cyanocyclopropyl)-9-(5-(difluoromethyl)-1,3,4-thiadiazol-2-yl)-4-(4-hydroxypiperidin-1-yl)-9H-pyrido[2,3-b]indole-7-sulfonamide]	100 to 1000 nM
100 to 1000 nM	N#CC1(NS(=O)(=O)c2ccc3c4c(N5CCN(c6ccccn6)CC5)ncnc4n(-c4nnc(C(F)F)s4)c3c2)CC1 [Example 17, N-(1-Cyanocyclopropyl)-9-(5-(difluoromethyl)-1,3,4-thiadiazol-2-yl)-4-(4-(pyridin-2-yl)piperazin-1-yl)-9H-pyrimido[4,5-b]indole-7-sulfonamide]	100 to 1000 nM
< 100 nM	C[C@@H]1CN(C)[C@@H](C)CN1c1ncnc2c1c1ccc(S(=O)(=O)NC3(C#N)CC3)cc1n2-c1nnc(C(F)F)s1 [Example 193, N-(1-Cyanocyclopropyl)-9-(5-(difluoromethyl)-1,3,4-thiadiazol-2-yl)-4-((2R,5S)-2,4,5-trimethylpiperazin-1-yl)-9H-pyrimido[4,5-b]indole-7-sulfonamide]	< 100 nM
